Measurements: the Deep4Chem optical property database
Values belong to the compound of their own block, whether it stands above or below them.

Experiment: solvent given as SMILES

absorption maximum (in ClC(Cl)Cl): 435 nm
Structure (SMILES): F[B-]1(F)OC(c2ccc(Br)cc2)=Cc2c3ccccc3c3ccccc3[n+]21

absorption maximum (in CCO): 382 nm
absorption maximum (in ClCCl): 385 nm
Structure (SMILES): N#Cc1cnc(-c2c3ccccc3cc3ccccc23)nc1

absorption maximum (in ClCCl): 440 nm
Structure (SMILES): c1ccc(C2=Nc3cccc4[n+]3[B-](c3ccccc3)(N2)NC(c2ccccc2)=N4)cc1

absorption maximum (in CO): 300 nm
Structure (SMILES): COc1cccc(-c2nc(-c3ccccc3)c(-c3ccccc3)[nH]2)c1

absorption maximum (in ClCCl): 379 nm
Structure (SMILES): CN(C)c1ccc(/C=C/c2ncccn2)cc1

absorption maximum (in ClCCl): 355 nm
Structure (SMILES): COc1ccc(/C=C/c2ncc(-c3ccccc3)o2)cc1OC

absorption maximum (in CCOC(C)=O): 388 nm
Structure (SMILES): OCc1cc2c(cc3ccc4cccc5ccc2c3c45)[nH]1

absorption maximum (in ClCCl): 322 nm
Structure (SMILES): CCOC(=O)c1c(-c2cc3ccccc3oc2=O)nn(-c2ccc(C)c(C)c2)c1C(=O)OCC

absorption maximum (in CC#N): 327 nm
absorption maximum (in ClCCl): 343 nm
Structure (SMILES): Cc1cc(-c2ccccc2C)cc(C)[o+]1

absorption maximum (in ClC(Cl)Cl): 340 nm
Structure (SMILES): FC(F)(F)c1ccc(-c2ncc3ccccn23)cc1

absorption maximum (in CS(C)=O): 373 nm
Structure (SMILES): O=C1CCCC2=C1C(c1cccc(Cl)c1)c1c(c3ccccc3oc1=O)N2 (stereo not drawn)

absorption maximum (in C1CCCCC1): 372 nm
absorption maximum (in CC#N): 357 nm
absorption maximum (in CO): 356 nm
absorption maximum (in ClC(Cl)Cl): 369 nm
Structure (SMILES): CN(C)c1ccc(C#Cc2ccc(-c3nc(C#N)c(C#N)n3C)cc2)cc1

absorption maximum (in ClCCl): 523 nm
Structure (SMILES): CCc1cccc(CC)c1-c1c2ccccc2c(C#Cc2ccccc2)c2cc3ccccc3cc12

absorption maximum (in ClC(Cl)Cl): 679 nm
absorption maximum (in ClCCl): 679 nm
Structure (SMILES): COc1ccc(C2=[N+]3C(=Nc4c(-c5ccccc5)c(Br)c(-c5ccc(OC)cc5)n4[B-]3(F)F)C(c3ccccc3)=C2Br)cc1

absorption maximum (in ClCCl): 432 nm
Structure (SMILES): CC1=NN(c2cccc3ccccc23)[B-](F)(F)[n+]2ccccc21

absorption maximum (in ClCCl): 370 nm
Structure (SMILES): COc1ccc(-c2cnc(/C=C/c3ccc(C#N)cc3)o2)cc1OC

absorption maximum (in c1ccccc1): 372 nm
Structure (SMILES): COc1ccc(-c2nc3ccccc3oc2=O)cc1

absorption maximum (in CS(C)=O): 301.5 nm
Structure (SMILES): CCCn1c(-c2cc(-c3nc4ccccc4n3CCC)cc(-c3nc4ccccc4n3CCC)c2)nc2ccccc21

absorption maximum (in ClC(Cl)Cl): 345 nm
Structure (SMILES): C(#Cc1ccc(C#Cc2ccc(C#Cc3ccccc3)cc2)cc1)c1ccccc1

absorption maximum (in C1CCCCC1): 430 nm
absorption maximum (in C1CCOC1): 431 nm
absorption maximum (in CC#N): 429 nm
absorption maximum (in ClC(Cl)Cl): 431 nm
absorption maximum (in c1ccccc1): 433 nm
Structure (SMILES): Cc1cc(C)c(B(c2c(C)cc(C)cc2C)c2cc3cc(N(C)C)c4ccccc4c3c3c2ccc2ccccc23)c(C)c1

absorption maximum (in ClCCl): 414 nm
Structure (SMILES): CN(C)c1ccc(C#Cc2nc(-c3ccccc3)nc3ccccc23)cc1

absorption maximum (in CC#N): 351 nm
absorption maximum (in CCCCCC): 346 nm
Structure (SMILES): C(=C\c1ccc(Nc2ccccc2)cc1)/c1ccccc1

absorption maximum (in ClCCl): 341 nm
Structure (SMILES): Cc1ccc(-c2cccc3ncc(-c4ccccc4)n23)cc1

absorption maximum (in ClCCl): 365 nm
Structure (SMILES): CC(C)c1cccc(C(C)C)c1N1C(=O)c2cccc3c(Oc4ccc(C(C)(C)c5ccccc5)cc4)ccc(c23)C1=O

absorption maximum (in ClC(Cl)Cl): 368 nm
Structure (SMILES): COc1ccc(-c2nc3ccccc3nc2-c2ccc(OC)cc2)cc1

absorption maximum (in ClC(Cl)Cl): 495 nm
Structure (SMILES): c1ccc(N(c2ccccc2)c2ccc(-c3ccc(-c4ccc(-c5cccs5)c5nsnc45)s3)cc2)cc1

Second part, the compound before the results:

Structure (SMILES): CC(C)[Si](C#Cc1ccc(C#C[Si](C(C)C)(C(C)C)C(C)C)c2nc3c(nc12)Cc1ccccc1-3)(C(C)C)C(C)C
absorption maximum (in CCCCCC): 369 nm

Structure (SMILES): O=S(=O)(c1ccc(-c2ccc3c(c2)c2ccccc2n3-c2ccccc2)cc1)c1ccc(-c2ccc3c(c2)c2ccccc2n3-c2ccccc2)cc1
absorption maximum (in Cc1ccccc1): 332 nm

Structure (SMILES): c1ccc(-n2c(-c3ccc(N(c4ccc(-c5ccc(N(c6ccc(-c7nc8c9ccccc9c9ccccc9c8n7-c7ccccc7)cc6)c6ccc(-c7nc8c9ccccc9c9ccccc9c8n7-c7ccccc7)cc6)cc5)cc4)c4ccc(-c5nc6c7ccccc7c7ccccc7c6n5-c5ccccc5)cc4)cc3)nc3c4ccccc4c4ccccc4c32)cc1
absorption maximum (in ClCCl): 376 nm

Structure (SMILES): CCCCCCCCN1C(=O)c2ccc3c4c(-c5ccc6c(c5)c5ccccc5n6-c5ccccc5)cc5c6c(cc(-c7ccc8c(c7)c7ccccc7n8-c7ccccc7)c(c7ccc(c2c37)C1=O)c64)C(=O)N(CCCCCCCC)C5=O
absorption maximum (in ClC(Cl)Cl): 563 nm

Structure (SMILES): COc1ccccc1C1=[N+]2C(=C(c3ccccc3)c3c4c(c(-c5ccccc5OC)n3[B-]2(F)F)C2C=CC4CC2)C2=C1C1C=CC2CC1 (stereo not drawn)
absorption maximum (in ClCCl): 556 nm

Structure (SMILES): CN1CCN(c2ccc3c4c(cccc24)C(=O)c2ccccc2-3)CC1
absorption maximum (in C1CCCCC1): 428.2 nm
absorption maximum (in C1CCOC1): 446 nm
absorption maximum (in C1COCCO1): 442.8 nm
absorption maximum (in CC1COC(=O)O1): 459 nm
absorption maximum (in CC#N): 453.8 nm
absorption maximum (in CC(C)=O): 449.6 nm
absorption maximum (in CCCCCCCCO): 451 nm
absorption maximum (in CCCCCO): 456.4 nm
absorption maximum (in CCCCO): 454.6 nm
absorption maximum (in CCCO): 455.4 nm
absorption maximum (in CCO): 455.4 nm
absorption maximum (in CCOC(C)=O): 443 nm
absorption maximum (in CN(C)C=O): 454.4 nm
absorption maximum (in CO): 456.4 nm
absorption maximum (in CS(C)=O): 460.8 nm
absorption maximum (in Cc1ccccc1): 443.8 nm
absorption maximum (in ClC(Cl)Cl): 455.4 nm

Structure (SMILES): CCC(C)(C)c1ccc(-c2ccc3c(c2)C(CCOC)(CCOC)c2cc(C(C)(C)CC)ccc2-3)cc1
absorption maximum (in C1CCCCC1): 318 nm

Structure (SMILES): CCCCCCc1ccc2c3c(ccc2c1)O[B-](c1ccccc1)(c1ccccc1)[N+](c1ccc([N+]2=Cc4c(ccc5cc(CCCCCC)ccc45)O[B-]2(c2ccccc2)c2ccccc2)cc1)=C3
absorption maximum (in C1CCOC1): 455 nm
absorption maximum (in CC#N): 452 nm
absorption maximum (in Cc1ccccc1): 462 nm
absorption maximum (in ClCCl): 459 nm

Structure (SMILES): CCC1=C(C)C2=C(/C=C/c3ccc([N+](=O)[O-])cc3)c3c(C)c(CC)c(/C=C/c4ccc(OC)cc4)n3[B-](F)(F)[N+]2=C1/C=C/c1ccc(OC)cc1
absorption maximum (in ClCCl): 666 nm

Structure (SMILES): CC(C)[Si](C#Cc1ccc(-c2c3cccc4c5cccc6c(-c7ccc(C#C[Si](C(C)C)(C(C)C)C(C)C)cc7)c7cccc8c9cccc2c9c(c34)c(c65)c78)cc1)(C(C)C)C(C)C
absorption maximum (in Cc1ccccc1): 727 nm

Structure (SMILES): F[B-]1(F)OC(c2ccc(C(F)(F)F)cc2)=Cc2cc(Cl)nc[n+]21
absorption maximum (in C1CCOC1): 371 nm
absorption maximum (in CC#N): 368 nm
absorption maximum (in CCCCCC): 370 nm
absorption maximum (in Cc1ccccc1): 374 nm
absorption maximum (in ClC(Cl)Cl): 372 nm
absorption maximum (in ClCCl): 372 nm

Structure (SMILES): CCCCCCN(CCCCCC)c1ccc(C#Cc2ccc(C(F)(F)F)cc2)cc1
absorption maximum (in CO): 356 nm
absorption maximum (in ClCCl): 362 nm

Structure (SMILES): CCCCCCOc1cc(C=C2C(=C(C#N)C#N)c3ccccc3C2=C(C#N)C#N)c(OCCCCCC)cc1C=C1C(=C(C#N)C#N)c2ccccc2C1=C(C#N)C#N
absorption maximum (in ClCCl): 542 nm

Structure (SMILES): O=P1(c2ccccc2)c2ccc(N3c4ccccc4Oc4ccccc43)cc2-c2cc(N3c4ccccc4Oc4ccccc43)ccc21
absorption maximum (in Cc1ccccc1): 405 nm
absorption maximum (in c1ccc2c(c1)c1ccccc1n2-c1ccc(-c2ccc(-n3c4ccccc4c4ccccc43)cc2)cc1): 404.2 nm

Structure (SMILES): N#Cc1ccc(N)c(/C=C/C(F)(F)F)c1
absorption maximum (in C1CCOC1): 348 nm

Structure (SMILES): O=[N+]([O-])c1ccc(C#Cc2ccc([N+](=O)[O-])cc2)cc1
absorption maximum (in CO): 329 nm
absorption maximum (in ClCCl): 335 nm

Structure (SMILES): CC1(C)c2ccccc2N(c2ccc(-c3cc(-c4ccccc4)nc(-c4ccccc4)n3)cc2)c2ccccc21
absorption maximum (in Cc1ccccc1): 374.95 nm

Structure (SMILES): C1=Cc2ccccc2C(=Cc2ccc(-c3cc(-c4ccc(C=C5c6ccccc6C=Cc6ccccc65)cc4)c(-c4ccc(C=C5c6ccccc6C=Cc6ccccc65)cc4)cc3-c3ccc(C=C4c5ccccc5C=Cc5ccccc54)cc3)cc2)c2ccccc21
absorption maximum (in C1CCOC1): 324 nm

Structure (SMILES): CC(C)(C)c1ccc2c(c1)c1cc(C(C)(C)C)ccc1n2-c1cc(C(=O)c2cccnc2)cc(-n2c3ccc(C(C)(C)C)cc3c3cc(C(C)(C)C)ccc32)c1
absorption maximum (in Cc1ccccc1): 381 nm

Structure (SMILES): C[Si]1(C)C2=C(c3ccc(N(c4ccccc4)c4ccccc4)cc31)P(=O)(c1ccccc1)c1ccccc12 (stereo not drawn)
absorption maximum (in CC#N): 440 nm
absorption maximum (in CO): 452 nm
absorption maximum (in Cc1ccccc1): 446 nm

Structure (SMILES): Cn1nc(-c2ccccc2)c2n[nH]nc2/c1=N\c1ccccn1
absorption maximum (in CC#N): 402 nm
absorption maximum (in CCO): 382 nm
absorption maximum (in Cc1ccccc1): 410 nm

Structure (SMILES): Cc1cc(N2c3ccccc3[Si](c3ccccc3)(c3ccccc3)c3ccccc32)c(C)cc1-c1nc(-c2ccccc2)nc(-c2ccccc2)n1
absorption maximum (in Cc1ccccc1): 365.47 nm

Structure (SMILES): CCn1c2sccc2c2c3nsnc3c3c4ccsc4n(CC)c3c21
absorption maximum (in C1CCOC1): 424 nm
absorption maximum (in CCOC(C)=O): 422 nm
absorption maximum (in CN(C)C=O): 430 nm
absorption maximum (in Cc1ccccc1): 423 nm
absorption maximum (in ClCCl): 425 nm

Structure (SMILES): COc1cc(/C=C/C(=O)O)ccc1O
absorption maximum (in O): 287 nm

Structure (SMILES): CCCCCCCCOc1cc(/C=C/c2ccncc2)c(OCCCCCCCC)cc1/C=C/c1ccncc1
absorption maximum (in ClCCl): 398 nm

Structure (SMILES): CCCC1=Cc2nc1ccc1[nH]c(cc1CCC)c1nc(c(OC)cc3[nH]c2cc3CCC)C(CCC)=C1
absorption maximum (in Cc1ccccc1): 682 nm

Structure (SMILES): COc1ccc2cc(C3=[N+]4C(=Nc5c(-c6ccc7ccccc7c6)c(Br)c(-c6ccc7cc(OC)ccc7c6)n5[B-]4(F)F)C(c4ccc5ccccc5c4)=C3Br)ccc2c1
absorption maximum (in ClCCl): 698 nm

Structure (SMILES): O=c1c2ccccc2sc2ccc(-n3c4ccccc4c4ccccc43)cc12
absorption maximum (in C1CCOC1): 388 nm
absorption maximum (in CCCCCC): 388 nm
absorption maximum (in Cc1ccccc1): 388 nm
absorption maximum (in ClC(Cl)Cl): 388 nm
absorption maximum (in ClCCl): 388 nm

Structure (SMILES): CCCc1ccc(C#Cc2cc(C#Cc3ccc(N(C)C)cc3)c3ccc4c(C#Cc5ccc(N(C)C)cc5)cc(C#Cc5ccc(CCC)cc5)c5ccc2c3c54)cc1
absorption maximum (in ClCCl): 488 nm

Structure (SMILES): CC[C@H](C)COc1ccc(C2=C3C(C)=CC(C)=[N+]3[B-](F)(F)n3c(C)cc(C)c32)cc1
absorption maximum (in ClCCl): 501 nm

Structure (SMILES): Cc1ccc(-c2cc(-c3ccccc3)c3c(N)nc(N4CCCC4)c(C#N)c3n2)cc1
absorption maximum (in CC#N): 412 nm
absorption maximum (in CC(C)=O): 414 nm
absorption maximum (in CC(C)O): 414 nm
absorption maximum (in CO): 414 nm
absorption maximum (in ClC(Cl)Cl): 420 nm
absorption maximum (in ClCCl): 420 nm
absorption maximum (in c1ccccc1): 424 nm
